Measurements from US20250085201A1, “SUBSTITUTED QUADRUPOLAR FLUORESCENT DYES FOR LIVE CELL IMAGING” (Northwestern University, priority 2023, published 2025).
“Also recorded” adds a separate entry of the source.

Tests used:
Solubility (qualitative) = assay type: physicochemical; settings: Cl− salt
[1] = test system: MCF-7 breast cancer cells; assay: Cell growth / cytotoxicity experiments (phase contrast imaging, cell number); assay type: cell-based; settings: MCF-7 cells
Description: Small molecular dyes are known^86 to intercalate with the DNA on account of electrostatic and base-pair interactions. The presence of these interactions inhibits enzyme function, elevating the cytotoxicity in living cells. To test the cytotoxicity of dye 9·4Cl, (FIG. 6) a series of cell uptake and viability experiments using MCF-7 breast cancer cells were performed. […] Moreover, the cells were viable and treatments of up to 10 μM concentration are non-cytotoxic for up to 64 h post-treatment.
MCF-7 Cells were plated in a 96-well culture plate at a density of 0.01×10^6 cells per well in Dulbecco's modified eagle medium (DMEM) media with 10% fetal bovine serum (FBS) and 1% Penicillin-Streptomycin. Cells were cultured for 24 h then treated with the compounds at a range of concentrations from 0.1-50 μM. Upon treatment, cells were placed in a BioTek LionheartFX system, where they were imaged at 4× magnification every 3 h for 72 h under standard culture conditions (37° C., 5% CO2). Phase contrast images were processed and analyzed with BioTek Gen5 analysis software to identify cell number at each time point during the culture period.
MCF-7 Breast cancer cells were grown in standard Dulbecco's modified eagle medium (DMEM), which was supplemented with 10% Fetal Bovine Serum (FBS) and 1% Penicillin-Streptomycin (Corning). Cells were seeded into an 8-well imaging coverglass chamber (manufacturer-CellVis) or multiwell plate using phenol red free DMEM about 24 h prior to treatment. Dye 9·4Cl was resuspended in deionized H2O before being diluted to their final concentrations in the cell culture media. Cells were treated with the dye for 24 h prior to imaging. Uptake assays were carried out at concentrations from 1-50 μM, including a vehicle control (untreated). For the cell growth assays, cells were treated with the dye for 24 h at a range of concentrations from 0.1-50 μM.
For the cell cytotoxicity experiments, MCF-7 cells were plated in a 96-well culture plate at a density of 0.01×10^6 cells per well in DMEM media with 10% FBS and 1% Penicillin-Streptomycin. Cells were cultured for 24 h before being treated with the dye at a range of concentrations from 0.1-50 μM. After treatment, cells were placed in a BioTek LionheartFX system, where they were imaged at 4× magnification every 3 h for 72 h under standard (37° C., 5% CO2) culture conditions. Phase contrast images were processed and analyzed with BioTek Gen5 analysis software to identify cell numbers at each time point during the culture period.

## COc1cc2c(OC)cc1-c1cc[n+](cc1)Cc1ccc(cc1)C[n+]1ccc(cc1)-c1cc(OC)c(cc1OC)-c1cc[n+](cc1)Cc1ccc(cc1)C[n+]1ccc-2cc1 [9·4Cl]
Solubility (qualitative)
  solubility in H2O: readily soluble; also recorded: Water soluble
[1]; concentrations of 5 μM and above
  cell growth: decreases gradually
[1]; higher concentrations (range tested up to 50 μM)
  cell death: minimal cell death is observed
[1]; low concentrations (up to 1 μM)
  growth of the cells versus non-treated control cells: comparable with that of non-treated control cells
[1]; treatments of up to 10 μM, up to 64 h post-treatment
  cytotoxicity: non-cytotoxic
